Data as given in PubChem BioAssay (NCI).
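Dose response: 5 concentrations. Exposure: 48 h. Format: 96-well plates. Endpoint: linear interpolation; highest concentration if not reached. TGI is the concentration that stops growth completely.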

Legend:
Assay in all cases: NCI anticancer screen, dose series, 48 h
A498 renal = system: A498 renal
MOLT-4 leukemia = system: MOLT-4 leukemia
OVCAR-4 ovarian = system: OVCAR-4 ovarian
LOX IMVI melanoma = system: LOX IMVI melanoma
ACHN renal = system: ACHN renal
RPMI-8226 leukemia = system: RPMI-8226 leukemia
UACC-257 melanoma = system: UACC-257 melanoma
NCI-H23 lung = system: NCI-H23 lung
COLO 205 colon = system: COLO 205 colon
SF-268 CNS = system: SF-268 CNS
786-0 renal = system: 786-0 renal
HS 578T breast = system: HS 578T breast
HL-60(TB) leukemia = system: HL-60(TB) leukemia
HCC-2998 colon = system: HCC-2998 colon
OVCAR-5 ovarian = system: OVCAR-5 ovarian
EKVX NSCLC = system: EKVX NSCLC
SK-MEL-5 melanoma = system: SK-MEL-5 melanoma
HCT-116 colon = system: HCT-116 colon
PC-3 prostate = system: PC-3 prostate
BT-549 breast = system: BT-549 breast
OVCAR-3 ovarian = system: OVCAR-3 ovarian
CAKI-1 renal = system: CAKI-1 renal
SF-539 CNS = system: SF-539 CNS
MDA-N = system: MDA-N
K-562 leukemia = system: K-562 leukemia
OVCAR-8 ovarian = system: OVCAR-8 ovarian
U251 CNS = system: U251 CNS
DU-145 prostate = system: DU-145 prostate
UACC-62 melanoma = system: UACC-62 melanoma
IGROV1 ovarian = system: IGROV1 ovarian
NCI-H522 lung = system: NCI-H522 lung
KM12 colon = system: KM12 colon
SR leukemia = system: SR leukemia
SK-MEL-28 melanoma = system: SK-MEL-28 melanoma
SF-295 CNS = system: SF-295 CNS
CCRF-CEM leukemia = system: CCRF-CEM leukemia
MALME-3M melanoma = system: MALME-3M melanoma
MCF7 breast = system: MCF7 breast
SK-MEL-2 melanoma = system: SK-MEL-2 melanoma
NCI/ADR-RES ovarian = system: NCI/ADR-RES ovarian
HT29 colon = system: HT29 colon
SK-OV-3 ovarian = system: SK-OV-3 ovarian
MDA-MB-435 = system: MDA-MB-435
HOP-62 NSCLC = system: HOP-62 NSCLC
SW-620 colon = system: SW-620 colon
T-47D breast = system: T-47D breast
NCI-H460 lung = system: NCI-H460 lung
HCT-15 colon = system: HCT-15 colon
MDA-MB-231 breast = system: MDA-MB-231 breast
NCI-H226 lung = system: NCI-H226 lung
TK-10 renal = system: TK-10 renal
UO-31 renal = system: UO-31 renal
RXF 393 renal = system: RXF 393 renal
SN12C renal = system: SN12C renal
SNB-19 CNS = system: SNB-19 CNS
HOP-92 NSCLC = system: HOP-92 NSCLC
M14 melanoma = system: M14 melanoma
A549 NSCLC = system: A549 NSCLC
SNB-75 CNS = system: SNB-75 CNS

In the case of `Cc1cc(O)c(C(C)C)cc1C(=S)Nc1ccc(Cl)cc1`, the TGI (A498 renal) is reported as 29.7 µM, the TGI (MOLT-4 leukemia) is reported as 19 µM and the TGI (OVCAR-4 ovarian) is reported as 20.2 µM. The TGI (LOX IMVI melanoma) was 24 µM, the TGI (ACHN renal) was 25.7 µM and the TGI (RPMI-8226 leukemia) was 33 µM. For the same compound, the TGI (UACC-257 melanoma) was 23.8 µM, the TGI (NCI-H23 lung) was 17.7 µM and the TGI (COLO 205 colon) was 31.5 µM. It also gave a TGI (SF-268 CNS) of 19.7 µM, a TGI (786-0 renal) of 27.3 µM and a TGI (HS 578T breast) of 28.9 µM. It also gave a TGI (HL-60(TB) leukemia) of 24.9 µM, a TGI (HCC-2998 colon) of 33 µM and a TGI (OVCAR-5 ovarian) of 28.3 µM. The TGI (EKVX NSCLC) was 25.3 µM, the TGI (SK-MEL-5 melanoma) was 23.8 µM and the TGI (HCT-116 colon) was 26 µM. The TGI (PC-3 prostate) was 23 µM, the TGI (BT-549 breast) was 30.7 µM and the TGI (OVCAR-3 ovarian) was 27.9 µM. It also gave a TGI (CAKI-1 renal) of 27.9 µM, a TGI (SF-539 CNS) of 29.6 µM and a TGI (MDA-N) of 23.7 µM. For the same compound, the TGI (K-562 leukemia) was 23.4 µM, the TGI (OVCAR-8 ovarian) was 24.2 µM and the TGI (U251 CNS) was 27.8 µM. It also gave a TGI (DU-145 prostate) of 31.5 µM, a TGI (UACC-62 melanoma) of 22.3 µM and a TGI (IGROV1 ovarian) of 15.9 µM. For the same compound, the TGI (NCI-H522 lung) was 17.8 µM, the TGI (KM12 colon) was 23 µM and the TGI (SR leukemia) was 20.4 µM. For the same compound, the TGI (SK-MEL-28 melanoma) was 28.6 µM, the TGI (SF-295 CNS) was 28.3 µM and the TGI (CCRF-CEM leukemia) was 16.7 µM. For the same compound, the TGI (MALME-3M melanoma) was 21.9 µM, the TGI (MCF7 breast) was 22.9 µM and the TGI (SK-MEL-2 melanoma) was 27.8 µM. It also gave a TGI (NCI/ADR-RES ovarian) of 34.5 µM, a TGI (HT29 colon) of 27.9 µM and a TGI (SK-OV-3 ovarian) of 36.4 µM. The TGI (MDA-MB-435) was 23.1 µM, the TGI (HOP-62 NSCLC) was 32.9 µM and the TGI (SW-620 colon) was 33.9 µM. It also gave a TGI (T-47D breast) of 29.2 µM, a TGI (NCI-H460 lung) of 27.4 µM and a TGI (HCT-15 colon) of 25.1 µM.

`CSc1c(C)n([O-])c2cc(Cl)c(Cl)cc2[n+]1=O` showed a TGI (A498 renal) of 61.6 µM, a TGI (MDA-MB-231 breast) of 37.9 µM and a TGI (MOLT-4 leukemia) of 5.43 µM. It also gave a TGI (OVCAR-4 ovarian) of 30.6 µM, a TGI (LOX IMVI melanoma) of 41.3 µM and a TGI (ACHN renal) of 30.7 µM. The TGI (RPMI-8226 leukemia) was 34.9 µM, the TGI (NCI-H226 lung) was 27.1 µM and the TGI (UACC-257 melanoma) was 34.8 µM. The TGI (NCI-H23 lung) was 31.8 µM, the TGI (TK-10 renal) was 35.6 µM and the TGI (COLO 205 colon) was 41.7 µM. For the same compound, the TGI (SF-268 CNS) was 36.6 µM, the TGI (786-0 renal) was 33.2 µM and the TGI (HS 578T breast) was > 68.5 µM. It also gave a TGI (HCC-2998 colon) of 38 µM, a TGI (OVCAR-5 ovarian) of 29.8 µM and a TGI (EKVX NSCLC) of 31 µM. For the same compound, the TGI (SK-MEL-5 melanoma) was 34.3 µM, the TGI (HCT-116 colon) was 32 µM and the TGI (PC-3 prostate) was 38.9 µM. For the same compound, the TGI (UO-31 renal) was 30.4 µM, the TGI (BT-549 breast) was 32.7 µM and the TGI (OVCAR-3 ovarian) was 33.1 µM. For the same compound, the TGI (CAKI-1 renal) was 32.5 µM, the TGI (SF-539 CNS) was > 100 µM and the TGI (MDA-N) was 33.9 µM. The TGI (K-562 leukemia) was 11.1 µM, the TGI (OVCAR-8 ovarian) was 32.3 µM and the TGI (U251 CNS) was 46.3 µM. The TGI (DU-145 prostate) was 30.9 µM, the TGI (RXF 393 renal) was 45.6 µM and the TGI (SN12C renal) was 33.3 µM. The TGI (SNB-19 CNS) was > 100 µM, the TGI (HOP-92 NSCLC) was 30.3 µM and the TGI (UACC-62 melanoma) was 28.9 µM. For the same compound, the TGI (IGROV1 ovarian) was 30.8 µM, the TGI (NCI-H522 lung) was 29.3 µM and the TGI (KM12 colon) was > 60.7 µM. For the same compound, the TGI (SR leukemia) was 5.69 µM, the TGI (SK-MEL-28 melanoma) was 39 µM and the TGI (SF-295 CNS) was > 100 µM. For the same compound, the TGI (M14 melanoma) was 45.6 µM, the TGI (CCRF-CEM leukemia) was 4.58 µM and the TGI (MALME-3M melanoma) was 33 µM. For the same compound, the TGI (MCF7 breast) was 45 µM, the TGI (A549 NSCLC) was > 100 µM and the TGI (SK-MEL-2 melanoma) was 46 µM. For the same compound, the TGI (NCI/ADR-RES ovarian) was 39.3 µM, the TGI (HT29 colon) was 33.7 µM and the TGI (SK-OV-3 ovarian) was > 100 µM. The TGI (MDA-MB-435) was 36.7 µM, the TGI (HOP-62 NSCLC) was > 100 µM and the TGI (SW-620 colon) was 42.9 µM. For the same compound, the TGI (T-47D breast) was 50 µM, the TGI (NCI-H460 lung) was > 100 µM and the TGI (HCT-15 colon) was 49.6 µM. The TGI (SNB-75 CNS) was > 69.4 µM.
